Where a name gives a salt, the structure may show the parent alone.
Columns and labels:
[1] = tested on: VEGF receptor tyrosine kinase (Flt, KDR); assay: In vitro receptor tyrosine kinase inhibition test (VEGF receptor); assay type: biochemical; settings: VEGF receptor tyrosine kinase compared with EGF receptor tyrosine kinase
Description: (a) In Vitro Receptor Tyrosine Kinase Inhibition Test
This assay determines the ability of a test compound to inhibit tyrosine kinase activity. […] These may then be expressed in a suitable expression system to obtain polypeptide with tyrosine kinase activity. […] This recombinant construct was co-transfected into insect cells (for example Spodoptera frugiperda 21(Sf21)) with viral DNA (eg Pharmingen BaculoGold) to prepare recombinant baculovirus.
For expression of cFlt tyrosine kinase activity, Sf21 cells were infected with plaque-pure cFlt recombinant virus at a multiplicity of infection of 3 and harvested 48 hours later. […] The suspension was centrifuged for 10 minutes at 13,000 rpm at 4° C., the supernatant (enzyme stock) was removed and stored in aliquots at −70° C. Each new batch of stock enzyme was titrated in the assay by dilution with enzyme diluent (100 mM Hepes pH 7.4, 0.2 mM sodium orthovanadate. 0.1% v/v Triton X100, 0.2 mM dithiothreitol). For a typical batch, stock enzyme is diluted 1 in 2000 with enzyme diluent and 50 μl of dilute enzyme is used for each assay well.
A stock of substrate solution was prepared from a random copolymer containing tyrosine, for example Poly (Glu, Ala, Tyr) 6:3:1 (Sigma P3899), stored as 1 mg/ml stock in PBS at −20° C. and diluted 1 in 500 with PBS for plate coating.
On the day of the assay the substrate solution was discarded and the assay plate wells were washed once with PBST (PBS containing 0.05% v/v Tween 20) and once with 50 mM Hepes pH7.4.
Test compounds were diluted with 10% dimethylsulphoxide (DMSO) and 25 μl of diluted compound was transferred to wells in the washed assay plates. “Total” control wells contained 10% DMSO instead of compound. Twenty five microliters of 40 mM manganese(II)chloride containing 8 μM adenosine-5′-triphosphate (ATP) was added to all test wells except “blank” control wells which contained maganese(II)chloride without ATP. To start the reactions 50 μl of freshly diluted enzyme was added to each well and the plates were incubated at room temperature for 20 minutes. The liquid was then discarded and the wells were washed twice with PBST. […] Plates were then incubated for 20-60 minutes at room temperature until the optical density value of the “total” control wells, measured at 405 nm using a plate reading spectrophotometer, was approximately 1.0.

Row | SMILES | melting point [°C] | activity against VEGF and EGF receptor tyrosine kinases [1]
1 | COc1cc2c(Nc3ccc(Cl)cc3F)ncnc2cc1OCCN1CCNC1=O [Example 40, 4-(4-chloro-2-fluoroanilino)6-methoxy-7-(2-(2-oxoimidazolidin-1-yl)ethoxy)quinazoline] | > 250 | substantially equivalent activity
2 | COc1cc2c(Nc3ccc(Cl)cc3F)ncnc2cc1OCCNC(=O)OC(C)(C)C [Example 34, 7-(2-[N-tert-butoxycarbonylamino]ethoxy)4-(4-chloro-2-fluoroanilino)6-methoxyquinazoline] | 190 to 191 | substantially equivalent activity
3 | COc1cc2c(Nc3ccc(Cl)cc3F)ncnc2cc1OCCN1CCSCC1 [Example 12, 4-(4-chloro-2-fluoroanilino)-6-methoxy-7-(2-thiomorpholinoethoxy)quinazoline] | 181 to 182 | substantially equivalent activity
4 | COc1cc2c(Nc3ccc(Cl)cc3F)ncnc2cc1OCCN1CCCC1=O.Cl [Example 39, 4-(4-chloro-2-fluoroanilino)6-methoxy-7-(2-(2-oxopyrrolidin-1-yl)ethoxy)quinazoline hydrochloride] | 250 to 252 | substantially equivalent activity
5 | COc1cc2c(Nc3ccc(Cl)cc3F)ncnc2cc1OCCCS(C)(=O)=O (as salt: hydrochloride) [Example 16, 4-(4-chloro-2-fluoroanilino)-6-methoxy-7-(3-(methylsulphonyl)propoxy)quinazoline] | > 250 | –
6 | COCCOc1cc2ncnc(Nc3ccc(C)c(OC(C)=O)c3)c2cc1OC [Example 1, 4-(3-acetoxy-4-methylanilino)-6-methoxy-7-(2-methoxyethoxy)quinazoline] | 180 to 183 | –
